Measured values taken from article PMC10655782 (Alzheimer's & Dementia : Translational Research & Clinical …, 2023).

Experiments:
human SHIP1 Ptase‐C2 = target: T1, human SHIP1 Ptase‐C2 (Homo sapiens, UniProt Q92835); assay: Malachite green enzyme assay, hSHIP1^395‐898 Ptase‐C2, substrate PtdIns; format: biochemical
T1 sequence (Q92835 395-898): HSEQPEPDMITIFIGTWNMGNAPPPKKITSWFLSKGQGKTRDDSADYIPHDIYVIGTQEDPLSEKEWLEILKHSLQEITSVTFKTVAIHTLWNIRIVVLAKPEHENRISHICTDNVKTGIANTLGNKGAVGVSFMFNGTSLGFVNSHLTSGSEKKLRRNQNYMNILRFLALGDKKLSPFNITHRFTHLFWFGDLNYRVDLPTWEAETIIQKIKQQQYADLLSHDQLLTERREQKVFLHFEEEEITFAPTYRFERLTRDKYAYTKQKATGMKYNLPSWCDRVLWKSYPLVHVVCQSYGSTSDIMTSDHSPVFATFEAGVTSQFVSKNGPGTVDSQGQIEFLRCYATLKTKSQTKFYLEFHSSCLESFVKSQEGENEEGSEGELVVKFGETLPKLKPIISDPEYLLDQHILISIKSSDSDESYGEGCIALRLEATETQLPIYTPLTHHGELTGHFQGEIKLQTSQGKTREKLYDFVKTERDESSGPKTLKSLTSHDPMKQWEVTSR

[1] = target: T2, HiBit‐SHIP1 (full‐length human SHIP1) (Homo sapiens, UniProt Q92835); assay: SplitLuc cellular thermal shift assay; format: cell-based; conditions: for CETSA % (percent luminescence at the highest dose): highest dose (100 μM); for CETSA TE (target engagement): significant if difference from control at highest dose >3SD
T2 sequence (Q92835 1-1189): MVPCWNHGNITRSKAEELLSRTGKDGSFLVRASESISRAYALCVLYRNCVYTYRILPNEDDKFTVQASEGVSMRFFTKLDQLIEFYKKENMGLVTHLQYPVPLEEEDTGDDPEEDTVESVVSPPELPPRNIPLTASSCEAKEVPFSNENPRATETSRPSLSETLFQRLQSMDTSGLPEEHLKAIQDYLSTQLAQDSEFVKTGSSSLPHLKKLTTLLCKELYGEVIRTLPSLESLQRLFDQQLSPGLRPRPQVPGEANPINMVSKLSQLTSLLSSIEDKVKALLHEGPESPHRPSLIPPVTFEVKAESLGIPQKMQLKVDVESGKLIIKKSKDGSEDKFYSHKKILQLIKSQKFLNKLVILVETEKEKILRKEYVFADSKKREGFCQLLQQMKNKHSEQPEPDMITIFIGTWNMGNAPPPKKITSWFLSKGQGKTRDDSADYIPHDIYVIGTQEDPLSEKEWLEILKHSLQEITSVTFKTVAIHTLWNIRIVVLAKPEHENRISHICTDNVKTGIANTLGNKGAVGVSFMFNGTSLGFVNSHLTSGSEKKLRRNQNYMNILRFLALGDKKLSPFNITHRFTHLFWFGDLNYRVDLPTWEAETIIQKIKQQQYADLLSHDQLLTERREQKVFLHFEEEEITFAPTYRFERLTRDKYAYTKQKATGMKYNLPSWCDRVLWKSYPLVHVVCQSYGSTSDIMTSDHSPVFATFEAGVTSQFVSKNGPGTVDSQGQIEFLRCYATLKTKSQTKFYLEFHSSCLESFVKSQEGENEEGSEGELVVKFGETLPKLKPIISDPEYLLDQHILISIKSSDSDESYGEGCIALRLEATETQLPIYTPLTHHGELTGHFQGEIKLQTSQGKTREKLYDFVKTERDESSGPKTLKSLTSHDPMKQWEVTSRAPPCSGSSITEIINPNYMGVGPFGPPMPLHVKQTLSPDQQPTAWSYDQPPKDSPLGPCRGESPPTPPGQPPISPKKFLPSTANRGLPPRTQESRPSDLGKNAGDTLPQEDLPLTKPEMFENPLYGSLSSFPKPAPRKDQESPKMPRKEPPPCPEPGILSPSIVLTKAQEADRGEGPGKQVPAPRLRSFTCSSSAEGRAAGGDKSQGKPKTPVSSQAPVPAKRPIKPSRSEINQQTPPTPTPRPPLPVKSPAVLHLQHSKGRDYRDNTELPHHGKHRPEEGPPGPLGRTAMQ

HMC3 cells = assay: High‐content imaging assay; format: cell-based
BV2 cells = assay: High‐content imaging assay; format: cell-based, mouse
primary mouse microglia = assay: High‐content imaging phagocytosis assay in primary mouse microglia; format: cell-based

IC50 (human SHIP1 Ptase‐C2) [µM]	AC50 [1] [µM]	CETSA % (percent luminescence at the highest dose) [1]	CETSA TE (target engagement) [1]	EC50 (primary mouse microglia; Mus musculus, Microglia, read-out: phagocytosis EC50) [nM]	Compound	cellular phenotype in high‐content imaging (in words) (HMC3 cells)	cellular phenotype in high‐content imaging (in words) (BV2 cells)	increased phagocytosis (primary mouse microglia; primary mouse microglia from neonate mice) [fold]
201	–	–	–	–	CC(C)CCC[C@@H](C)[C@H]1CC[C@H]2[C@@H]3CCC4C[C@H](N)CC[C@]4(C)[C@H]3CC[C@]12C (stereo partly drawn) [Compound 13, 3α‐aminocholestane, reference compound]	–	–	–
26.8	173	63 ± 12 (2) %	Yes	–	CC(C)c1ccc(C2C(C#N)=C3N=C(N)c4ccccc4N3C3=C2C(=O)CCC3)cc1 (stereo not shown) [Compound 3]	–	–	–
18.6	46 ± 5	30 ± 7 (2) %	Yes	–	CC(=O)C1=C(C)Nc2sc(C(=O)c3ccc(Cl)c(Cl)c3)c(N)c2C1c1cccnc1 (stereo not shown) [Compound 2]	inactive	inactive	–
251	–	27 ± 15 (3) %	Yes	540	Clc1ccc(COc2cncc(-c3cnn(C4CCNCC4)c3)c2)c(Cl)c1 [Compound 23, 3‐((2,4‐Dichlorobenzyl)oxy)‐5‐(1‐(piperidin‐4‐yl)‐1H‐pyrazol‐4‐yl)pyridine, reference compound]	–	–	1.5
